Data published in patent publication US20250353891A1 (MEDIMMUNE LIMITED, priority 2022, published 2025).
Starred links: 1 amine or outer side, 2 acyl side, 3 side chain; linkers in the order of their positions; H or OH if unused. Non-standard residues stand in square brackets, D forms with d. Residues, ends and D or L forms follow the SMILES beside them. Groups on a side chain read outwards from the residue. *: point of attachment. C20 diacid = O=C(O)CCCCCCCCCCCCCCCCCCC(=O)*; C18 diacid = O=C(O)CCCCCCCCCCCCCCCCC(=O)*; γGlu = O=C(O)[C@H](CCC(=O)[*:2])N[*:1]; αMeF = C[C@](N)(Cc1ccccc1)C(=O)O; AEEA = NCCOCCOCC(=O)O; Aib = CC(C)(N)C(=O)O

Assays:
[1] = biological target: human GLP-1 receptor (hGLP-1R) (Homo sapiens, UniProt P43220); assay: cAMP production (HTRF) in CHO cells expressing hGLP-1R; assay type: cell-based; parameters: expressed in transfected cells; settings: for EC50: Table 7, peptides modified at position 20, cAMP in CHO hGLP-1R cells, geometric mean, read-out: hGLP-1R EC50; for % Relative Potency Ratio: Table 7, % GLP-1R activity relative to GLP-1 / % GlucR activity relative to glucagon
Method in brief: (§1)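 Cells were resuspended in assay buffer at batch-optimized density, typically 1×10^5 cells/mL for hGLP-1R and 2×10^5 cells/mL for hGCGR. After 30 min incubation at room temperature with compound, cAMP was measured by two-step HTRF. EC50 values came from 4-parameter logistic fits of % Delta F.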

[2] = biological target: human glucagon receptor (hGCGR) (Homo sapiens, UniProt P47871); assay: cAMP production (HTRF) in CHO cells expressing hGCGR; assay type: cell-based; parameters: expressed in transfected cells; settings: Table 7, peptides modified at position 20; cAMP in CHO hGCGR cells; geometric mean; read-out: hGluc-R EC50
Method in brief: as §1

human GLP-1 receptor (hGLP-1R), sequence (P43220 24-463): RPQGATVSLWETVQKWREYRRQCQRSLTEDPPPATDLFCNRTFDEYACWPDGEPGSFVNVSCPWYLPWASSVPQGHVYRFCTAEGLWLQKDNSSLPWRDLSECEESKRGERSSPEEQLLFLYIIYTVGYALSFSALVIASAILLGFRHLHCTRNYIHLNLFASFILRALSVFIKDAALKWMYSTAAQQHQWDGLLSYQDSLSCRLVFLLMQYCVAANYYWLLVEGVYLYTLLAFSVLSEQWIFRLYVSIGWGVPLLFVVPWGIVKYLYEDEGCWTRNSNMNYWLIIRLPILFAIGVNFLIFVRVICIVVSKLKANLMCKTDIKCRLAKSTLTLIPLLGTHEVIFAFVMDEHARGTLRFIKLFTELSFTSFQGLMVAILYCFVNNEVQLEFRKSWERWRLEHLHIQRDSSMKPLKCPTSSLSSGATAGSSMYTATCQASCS
human glucagon receptor (hGCGR), sequence (P47871 26-477): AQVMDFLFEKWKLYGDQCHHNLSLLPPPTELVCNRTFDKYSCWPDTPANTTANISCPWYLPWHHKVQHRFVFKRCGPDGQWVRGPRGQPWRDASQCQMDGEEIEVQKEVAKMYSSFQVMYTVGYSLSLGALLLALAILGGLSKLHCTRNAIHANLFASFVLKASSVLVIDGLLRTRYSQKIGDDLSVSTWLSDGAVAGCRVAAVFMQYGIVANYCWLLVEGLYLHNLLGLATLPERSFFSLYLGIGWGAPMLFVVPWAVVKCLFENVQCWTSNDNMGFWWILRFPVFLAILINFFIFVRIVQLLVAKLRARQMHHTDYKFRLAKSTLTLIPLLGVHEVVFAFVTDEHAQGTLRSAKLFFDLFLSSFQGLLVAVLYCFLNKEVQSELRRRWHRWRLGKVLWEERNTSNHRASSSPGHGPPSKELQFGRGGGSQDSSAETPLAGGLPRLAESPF

Row | SMILES | EC50 [1] [pM] | % Relative Potency Ratio [1] | EC50 [2] [pM]
1 | CC[C@H](C)[C@H](NC(=O)C(C)(C)NC(=O)[C@H](CCC(N)=O)NC(=O)[C@@H](NC(=O)[C@](C)(Cc1ccccc1)NC(=O)[C@H](CC(=O)O)NC(=O)[C@H](CCCCNC(=O)COCCOCCNC(=O)COCCOCCNC(=O)CC[C@H](NC(=O)CC[C@H](NC(=O)CCCCCCCCCCCCCCCCCCC(=O)O)C(=O)O)C(=O)O)NC(=O)[C@H](C)NC(=O)[C@H](C)NC(=O)[C@H](CCCNC(=N)N)NC(=O)[C@H](CO)NC(=O)[C@H](CC(=O)O)NC(=O)[C@H](CC(C)C)NC(=O)[C@](C)(Cc1ccccc1)NC(=O)[C@H](CCCCN)NC(=O)[C@H](CO)NC(=O)[C@@H](NC(=O)[C@H](CC(=O)O)NC(=O)[C@H](CO)NC(=O)[C@@H](NC(=O)[C@](C)(Cc1ccccc1)NC(=O)[C@H](CO)NC(=O)CNC(=O)[C@H](Cc1c[nH]cn1)NC(=O)[C@H](CO)NC(=O)[C@@H](N)Cc1c[nH]cn1)[C@@H](C)O)C(C)C)C(C)C)C(=O)N[C@@H](C)C(=O)N[C@@H](CC(N)=O)C(=O)N[C@H](C(N)=O)[C@@H](C)O [Peptide 281] (H-HSHGS[αMeF]TSDVSK[αMeF]LDSRAAK([AEEA-AEEA-γGlu-γGlu-C20 diacid])D[αMeF]VQ[Aib]IANT-NH2) | 155 | 13.3 | 1040
2 | CC[C@H](C)[C@H](NC(=O)C(C)(C)NC(=O)[C@H](CCC(N)=O)NC(=O)[C@@H](NC(=O)[C@](C)(Cc1ccccc1)NC(=O)[C@H](CC(=O)O)NC(=O)[C@H](CCCCNC(=O)COCCOCCNC(=O)COCCOCCNC(=O)CC[C@H](NC(=O)CCCCCCCCCCCCCCCCC(=O)O)C(=O)O)NC(=O)[C@H](C)NC(=O)[C@H](C)NC(=O)[C@H](CCCNC(=N)N)NC(=O)[C@H](CO)NC(=O)[C@H](CC(=O)O)NC(=O)[C@H](CC(C)C)NC(=O)[C@](C)(Cc1ccccc1)NC(=O)[C@H](CCCCN)NC(=O)[C@H](CO)NC(=O)[C@@H](NC(=O)[C@H](CC(=O)O)NC(=O)[C@H](CO)NC(=O)[C@@H](NC(=O)[C@](C)(Cc1ccccc1)NC(=O)[C@H](CO)NC(=O)CNC(=O)[C@H](Cc1c[nH]cn1)NC(=O)[C@H](CO)NC(=O)[C@@H](N)Cc1c[nH]cn1)[C@@H](C)O)C(C)C)C(C)C)C(=O)N[C@@H](C)C(=O)N[C@@H](CC(N)=O)C(=O)N[C@H](C(N)=O)[C@@H](C)O [Peptide 284] (H-HSHGS[αMeF]TSDVSK[αMeF]LDSRAAK([AEEA-AEEA-γGlu-C18 diacid])D[αMeF]VQ[Aib]IANT-NH2) | 43.4 | 5.4 | 119
3 | CC[C@H](C)[C@H](NC(=O)C(C)(C)NC(=O)[C@H](CCC(N)=O)NC(=O)[C@@H](NC(=O)[C@](C)(Cc1ccccc1)NC(=O)[C@H](CC(=O)O)NC(=O)[C@H](CCCCNC(=O)COCCOCCNC(=O)COCCOCCNC(=O)CC[C@H](NC(=O)CCCCCCCCCCCCCCCCC(=O)O)C(=O)O)NC(=O)[C@H](C)NC(=O)[C@H](C)NC(=O)[C@H](CCCNC(=N)N)NC(=O)[C@H](CO)NC(=O)[C@H](CC(=O)O)NC(=O)[C@H](CC(C)C)NC(=O)[C@](C)(Cc1ccccc1)NC(=O)[C@H](CCCCN)NC(=O)[C@H](CO)NC(=O)[C@@H](NC(=O)[C@H](CC(=O)O)NC(=O)[C@H](CO)NC(=O)[C@@H](NC(=O)[C@H](Cc1ccccc1)NC(=O)[C@H](CO)NC(=O)CNC(=O)[C@H](Cc1c[nH]cn1)NC(=O)C(C)(C)NC(=O)[C@@H](N)Cc1c[nH]cn1)[C@@H](C)O)C(C)C)C(C)C)C(=O)N[C@@H](C)C(=O)N[C@@H](CC(N)=O)C(=O)N[C@H](C(N)=O)[C@@H](C)O [Peptide 285] (H-H[Aib]HGSFTSDVSK[αMeF]LDSRAAK([AEEA-AEEA-γGlu-C18 diacid])D[αMeF]VQ[Aib]IANT-NH2) | 301 | 0.6 | 87
